Measurements reported in publication PMC5601360 (Journal of Medicinal Chemistry, 2017).

Columns and labels:
human KOP receptor [1] = biological target: T1, human KOP receptor (Homo sapiens, UniProt P41145); assay: Competition binding assay, CHO-hKOP cell membranes, [3H]U69,593; details: for Ki: CHO-hKOP membranes, mean ± SEM, read-out: receptor binding affinity Ki KOP; for selectivity DOP/KOP: Ki ratio DOP/KOP; for selectivity MOP/KOP: Ki ratio MOP/KOP
T1 construct: expressed in transfected cells; host or cells: CHO-hKOP cells (gift of Dr. Lawrence Toll, SRI International)
Protocol: (§1) CHO cells stably expressing recombinant human KOP, MOP, or DOP receptors (CHO-hKOP, CHO-hMOP, and CHO-hDOP cell lines) were kindly provided by Dr. Lawrence Toll (SRI International, Menlo Park, CA). The CHO-hKOP cell line was maintained in Dulbecco’s Minimal Essential Medium (DMEM) supplemented with fetal bovine serum (FBS, 10%), penicillin/streptomycin (0.1%), L-glutamine (2 mM), and geneticin (400 μg/mL). The CHO-hMOP and CHO-hDOP cell lines were maintained in DMEM/Ham’s F-12 medium supplemented with FBS (10%), penicillin/streptomycin (0.1%), L-glutamine (2 mM), and geneticin (400 μg/mL). Cell cultures were maintained at 37 °C in 5% CO2 humidified air.
(§2) Nonspecific binding was determined using 1–10 μM of the unlabeled counterpart of each radioligand. Assays were performed in 50 mM Tris-HCl buffer (pH 7.4) in a final volume of 1 mL. Cell membranes (15–20 μg) were incubated with the appropriate radioligand and various concentrations of test compound for 60 min at 25 °C. After incubation, reactions were terminated by rapid filtration through Whatman glass fiber filters. Filters were washed three times with 5 mL of ice-cold 50 mM Tris-HCl buffer (pH 7.4) using a Brandel M24R cell harvester (Gaithersburg, MD). Radioactivity retained on the filters was counted by liquid scintillation counting using a Beckman Coulter LS6500 (Beckman Coulter Inc., Fullerton, CA). All binding experiments were performed in duplicate and repeated at least three times. The inhibitory constant Ki values (in nM) were calculated from the competition binding curves by nonlinear regression analysis and the Cheng–Prusoff equation.[16]

human MOP receptor = biological target: T2, human MOP receptor (Homo sapiens, UniProt P35372); assay: Competition binding assay, CHO-hMOP cell membranes, [3H]DAMGO; details: mean ± SEM, read-out: receptor binding affinity Ki MOP
T2 construct: expressed in transfected cells; host or cells: CHO-hMOP cells (gift of Dr. Lawrence Toll, SRI International)
Protocol: as §1
as §2, with “. Nonspecific” for “Nonspecific”

human DOP receptor = biological target: T3, human DOP receptor (Homo sapiens, UniProt P41143); assay: Competition binding assay, CHO-hDOP cell membranes, [3H]diprenorphine; details: mean ± SEM, read-out: receptor binding affinity Ki DOP
T3 construct: expressed in transfected cells; host or cells: CHO-hDOP cells (gift of Dr. Lawrence Toll, SRI International)
Protocol: as §1
as §2, with “. Nonspecific” for “Nonspecific”

human KOP receptor [2] = biological target: T1, human KOP receptor; assay: [35S]GTPγS binding assay using CHO-hKOP cell membranes; assay type: biochemical; details: for EC50: CHO-hKOP membranes, mean ± SEM; for Emax: read-out: [35S]GTPγS KOP % stim
Protocol: The binding of [^35S]GTPγS to membranes from CHO cells stably expressing human KOP receptors (CHO-hKOP cells) was conducted according to the published procedures.[9a],[9b] CHO-hKOP cell membranes were prepared in buffer A (20 mM HEPES, 10 mM MgCl2, and 100 mM NaCl, pH 7.4). Cell membranes (8–15 μg) in buffer A were incubated with 0.05 nM [^35S]GTPγS, 10 μM GDP, and various concentrations of test compound in a final volume of 1 mL for 60 min at 25 °C. Nonspecific binding was determined using 10 μM GTPγS, and the basal binding was determined in the absence of test ligand. Samples are filtered over glass fiber filters and counted as described for binding assays. […] To determine the KOP antagonist activity, a concentration–response curve for U69,593 was obtained by assessing the [^35S]GTPγS binding to CHO-hKOP cell membranes in the presence or absence of test compound, as previously described.[9b] For each compound, the Schild analysis was conducted, utilizing a full agonist–dose response curve in the presence of at least two concentrations of the antagonist. The equilibrium dissociation constant (Ke) was calculated from the equation Ke = [a]/(DR – 1), where “a” is the concentration of antagonist and DR the virtual shift of the agonist concentration–response curve to the right in the presence of a given concentration of antagonist. All experiments were performed in duplicate and repeated at least three times.

[3] = tested on: acetic acid-induced writhing in CD1 mice; assay: Acetic acid-induced writhing assay in mice after sc administration; assay type: in vivo; details: sc; for ED50: Mus musculus, 0.5 h, CD1 mice, inhibition of writhing at 30 min after drug administration, read-out: antinociceptive ED50 (95% CI)
Protocol: Male CD1 mice (30–35 g, 6–8 weeks old) were obtained from the Center of Biomodels and Experimental Medicine (CBEM) (Innsbruck, Austria) or Charles River (Sulzfeld, Germany). Mice were group-housed in a temperature controlled room with a 12 h light/dark cycle and with free access to food and water. All animal studies were conducted in accordance with ethical guidelines and animal welfare standards according to Austrian regulations for animal research and were approved by the Committee of Animal Care of the Austrian Federal Ministry of Science and Research. Solutions of test compounds were prepared as 1% DMSO solutions in sterile physiological 0.9% saline and further diluted to working doses in saline solution. Test compounds or vehicle (saline) were administered by sc route in a volume of 10 μL/1 g of body weight. All doses are expressed in terms of salts. Separate groups of mice received the respective dose of compound, and individual mice were only used once for behavioral testing. Each experimental group included at least five animals.
Writhing was induced in male CD1 mice by intraperitoneal (ip) injection of a 0.6% acetic acid aqueous solution as described previously.[9a] Groups of mice were administered sc different doses of test compound or saline (control), and then 5 min prior to testing (25 min after drug or saline) each animal received an ip injection of acetic acid solution. Each mouse was placed in individual transparent Plexiglas chambers, and the number of writhes was counted during a 10 min observation period. […] For the antagonism studies, nor-BNI (20 mg/kg) was sc administered 24 h before 2 (5 mg/kg) and 17 (10 mg/kg) was sc administered 15 min before U50,488 (2 mg/kg).

[4] = percentage stimulation relative to the KOP full agonist U69,593

SMILES	Ki (human KOP receptor [1]) [nM]	selectivity DOP/KOP (human KOP receptor [1])	selectivity MOP/KOP (human KOP receptor [1])	Ki (human MOP receptor) [nM]	Ki (human DOP receptor) [nM]	EC50 (human KOP receptor [2]) [nM]	Emax (human KOP receptor [2]; [4]) [%]	ED50 [3] [mg/kg]	[35S]GTPγS KOP % stim (human KOP receptor [2]; [4]) [%]	lower KOP affinity vs compound 4 (human KOP receptor [1]; Ki comparison)	decrease in in vitro agonist potency vs compound 3 (human KOP receptor [2]; EC50 comparison)	reduction in antinociceptive potency vs compound 3 ([3]; ED50 comparison)
Cl.Oc1cccc(CCN(CCc2ccccc2)Cc2ccccc2)c1 [Compound 5, 3-[2-[(Benzyl)(phenethyl)amino]ethyl]phenol Hydrochloride]	0.71 ± 0.25	2623	652	463 ± 95	1860 ± 501	4.65 ± 1.63	≥ 80	1.21	–	–	–	–
Cl.Oc1cccc(CCN(CCc2ccccc2)C2CCC2)c1 [Compound 6, 3-[2-[(Cyclobutyl)(phenethyl)amino]ethyl]phenol Hydrochloride]	10.3 ± 1.2	344	65	670 ± 174	3540 ± 38	46.1 ± 13.9	50.7 ± 5	–	–	–	–	–
CC(C)CCN(CCc1ccccc1)CCc1cccc(O)c1.Cl [Compound 7, 3-[2-[(Isoamyl)(phenethyl)amino]ethyl]phenol Hydrochloride]	2.69 ± 0.43	1020	96	259 ± 86	2740 ± 677	22.1 ± 3.1	74.7 ± 3.6	2.78	–	–	–	–
Cl.Oc1cccc(CCN(CCc2cccc(O)c2)CC2CCC2)c1 [Compound 8, 3,3′-[2,2′-(Cyclobutylmethylazanediyl)bis(ethane-2,1-diyl)]diphenol Hydrochloride]	0.38 ± 0.09	8789	605	230 ± 43	3340 ± 844	4.44 ± 1.36	71.1 ± 5.2	1.71	–	–	–	–
Cl.Oc1cccc(CCN(CCc2cccc(O)c2)CC2CC2)c1 [Compound 9, 3,3′-[2,2′-(Cyclopropylmethylazanediyl)bis(ethane-2,1-diyl)]diphenol Hydrochloride]	4.62 ± 0.11	617	137	631 ± 215	2850 ± 720	20.6 ± 0.6	51.3 ± 7.6	4.73	–	–	–	–
C=CCN(CCc1cccc(O)c1)CCc1cccc(O)c1.Cl [Compound 10, 3,3′-[2,2′-(Allylazanediyl)bis(ethane-2,1-diyl)]diphenol Hydrochloride]	19.1 ± 0.6	39	19	358 ± 28	738 ± 16	154 ± 62	37.5	–	37.5 ± 0.6	–	–	–
Cl.Oc1cccc(CCN(CCc2cccc(O)c2)CC2CCCCC2)c1 [Compound 11, 3,3′-[2,2′-(Cyclohexylmethylazanediyl)bis(ethane-2,1-diyl)]diphenol Hydrochloride]	0.14 ± 0.04	10229	1193	167 ± 52	1430 ± 506	17.6 ± 7.1	≥ 80	0.95	–	about 2 fold	–	–
Cl.Oc1cccc(CCN(CCc2cccc(O)c2)CC2CCCC2)c1 [Compound 12, 3,3′-[2,2′-(Cyclopentylmethylazanediyl)bis(ethane-2,1-diyl)]diphenol Hydrochloride]	0.31 ± 0.04	8952	1884	584 ± 119	2780 ± 545	13.7 ± 3.5	≥ 80	1.19	–	–	about 3 fold	about 2 fold
CC(C)CCN(CCc1cccc(O)c1)CCc1cccc(O)c1.Cl [Compound 13, 3,3′-[2,2′-(Isoamylazanediyl)bis(ethane-2,1-diyl)]diphenol Hydrochloride]	2.1 ± 0.26	699	100	211 ± 17	1470 ± 147	16.6 ± 0.7	65.6 ± 3.4	2.63	–	–	–	–
Cl.Oc1ccc(CCN(CCc2cccc(O)c2)CC2CCC2)cc1 [Compound 14, 3-[2-[(Cyclobutylmethyl)(4-hydroxyphenethyl)amino]ethyl]phenol Hydrochloride]	3.43 ± 0.75	125	5	16.1 ± 4.7	428 ± 93	22.2 ± 3.6	76.4 ± 1.1	1.73	–	–	–	–
Cl.Oc1ccc(CCN(CCc2cccc(O)c2)CC2CCCCC2)cc1 [Compound 15, 3-[2-[(Cyclohexylmethyl)(4-hydroxyphenethyl)amino]ethyl]phenol Hydrochloride]	1.85 ± 0.07	–	–	234 ± 112	1640 ± 557	22.2 ± 7.2	≥ 80	1.9	–	–	–	–
C=CCN(CCc1ccc(O)cc1)CCc1cccc(O)c1 [Compound 16]	43.5 ± 1.5	25	4	192 ± 17	1100 ± 485	248 ± 89	28.5	–	–	–	–	–
c1ccc(CCN(CCc2ccccc2)CC2CCC2)cc1 [Compound 22, N-(Cyclobutylmethyl)-N-phenethyl-2-phenylethanamine]	79.1 ± 12.5	28	13	1060 ± 263	2180 ± 881	359 ± 116	≥ 80	–	–	–	–	–
